Test: mn = molality of the nth substance listed, in mol/kg
Conditions: 101 kPa, Liquid, Alternating current cell with electrodes

O=S(=O)([O-])[O-].[K+].[K+] [potassium sulfate] + O
electrical conductivity [S/m]
Conditions | 278.15 K | 283.15 K | 298.15 K | 308.15 K | 318.15 K | 343.15 K | 363.15 K
m1 = 0.000102 | 0.001969 | 0.002257 | 0.003175 | 0.003884 | 0.004575 | 0.006401 | 0.00794
m1 = 0.00105 | 0.01881 | 0.02141 | 0.03006 | 0.03611 | 0.04268 | 0.06018 | 0.07466
m1 = 0.01061 | 0.1685 | 0.1919 | 0.2675 | 0.3216 | 0.3765 | 0.5269 | 0.6441
m1 = 0.1048 | 1.341 | 1.523 | 2.11 | 2.516 | 2.94 | 4.064 | 4.957
m1 = 0.2029 | 2.362 | 2.672 | 3.705 | 4.409 | 5.138 | 7.099 | 8.722
m1 = 0.4783 | 5.151 | 5.78 | 7.801 | 9.298 | 10.8 | 14.91 | 17.97

O=[N+]([O-])[O-].O=[N+]([O-])[O-].[Mg+2] [magnesium nitrate] + O
electrical conductivity [S/m]
Conditions | 278.1 K | 283.1 K | 298.15 K | 308.15 K | 318.15 K | 343.15 K | 363.15 K
m1 = 9.8e-05 | 0.007334 | 0.008166 | 0.01072 | 0.01244 | 0.01407 | 0.01831 | 0.02164
m1 = 0.000976 | 0.01971 | 0.02238 | 0.03083 | 0.03667 | 0.04272 | 0.0591 | 0.07277
m1 = 0.00937 | 0.1291 | 0.1472 | 0.2073 | 0.2488 | 0.2927 | 0.4146 | 0.5165
m1 = 0.09844 | 1.079 | 1.228 | 1.724 | 2.078 | 2.442 | 3.471 | 4.261
m1 = 0.3271 | 3.129 | 3.538 | 4.926 | 5.922 | 6.968 | 9.861 | 11.62

[Cl-].[Cs+] [cesium chloride] + O
electrical conductivity [S/m]
Conditions | 278.15 K | 283.15 K | 298.15 K | 308.15 K | 318.15 K | 343.15 K | 363.15 K
m1 = 0.000106 | 0.001018 | 0.001151 | 0.001597 | 0.001917 | 0.002242 | 0.003135 | 0.004007
m1 = 0.00101 | 0.009529 | 0.01089 | 0.0151 | 0.01817 | 0.02103 | 0.0293 | 0.03658
m1 = 0.01058 | 0.09738 | 0.1107 | 0.1539 | 0.185 | 0.2142 | 0.2972 | 0.3702
m1 = 0.1009 | 0.8548 | 0.9735 | 1.346 | 1.614 | 1.859 | 2.604 | 3.107
m1 = 0.4763 | 3.754 | 4.256 | 5.762 | 6.816 | 7.917 | 11.01 | 13.23
m1 = 1.09 | 8.303 | 9.355 | 12.29 | 14.25 | 16.55 | 22.98 | 26.87

O=S(=O)(O)O [sulfuric acid] + O
electrical conductivity [S/m]
Conditions | 278.15 K | 283.15 K | 298.15 K | 308.15 K | 318.15 K | 343.15 K | 363.15 K
m1 = 9.4e-05 | 0.005493 | 0.006105 | 0.007827 | 0.008931 | 0.009949 | 0.01221 | 0.01367
m1 = 0.000936 | 0.05201 | 0.05749 | 0.07292 | 0.08174 | 0.09001 | 0.1026 | 0.1058
m1 = 0.00944 | 0.4321 | 0.4729 | 0.5772 | 0.6319 | 0.6759 | 0.7372 | 0.7698
m1 = 0.09223 | 3.12 | 3.444 | 4.13 | 4.525 | 4.885 | 5.575 | 6.159
m1 = 0.4664 | 13.46 | 14.5 | 17.37 | 19.34 | 20.96 | 25.62 | 28.05

O=[N+]([O-])[O-].O=[N+]([O-])[O-].O=[N+]([O-])[O-].[Fe+3] [ferric nitrate] + O
electrical conductivity [S/m]
Conditions | 278.1 K | 283.1 K | 298.15 K | 308.15 K | 318.15 K | 343.15 K | 363.15 K
m1 = 9.9e-05 | – | – | – | – | – | 9.086 | 10.27
m1 = 0.000984 | – | – | – | – | – | 9.106 | 10.33
m1 = 0.00985 | – | – | – | – | – | 9.553 | 10.91
m1 = 0.09618 | 5.143 | 5.777 | 7.576 | 8.788 | 10.15 | 13.85 | 16.52
m1 = 0.2534 | 6.656 | 7.523 | 9.984 | 11.83 | 14.02 | 20.32 | –

Reference: the NIST ThermoML archive (doi:10.1021/je101012n)
